Measured values taken from article PMC12527977, “Discovery of a novel tetrapeptide as glucose homeostasis modulator with bifunctionalities of targeting DPP‐IV and microbiota” (iMeta, 2025).
Like-named read-outs stand apart in the source and are kept apart here. Where a SMILES comes first, the peptide text is derived from it.

Target: DPP-IV (Homo sapiens, UniProt P27487)
Assay: DPP-IV inhibition in iPSC-induced intestinal organoids (supernatant, DPP-IV-Glo kit)
Type: cell-based
Design: endogenous in cells; host or cells: iPSC-induced intestinal organoids
Conditions: Fig 1R, 24 h, read-out: Inhibitory effect on DPP-IV; for inhibition at 100 µg/mL: VAMP 100 μg/mL; for inhibition at 200 µg/mL: VAMP 200 μg/mL; for inhibition at 500 µg/mL: VAMP 500 μg/mL
Description: iPSC-induced intestinal organoids were established according to the manufacturer’s instructions (STEMdiff^TM Intestinal Organoid kit).

DPP-IV, sequence (P27487 whole entry): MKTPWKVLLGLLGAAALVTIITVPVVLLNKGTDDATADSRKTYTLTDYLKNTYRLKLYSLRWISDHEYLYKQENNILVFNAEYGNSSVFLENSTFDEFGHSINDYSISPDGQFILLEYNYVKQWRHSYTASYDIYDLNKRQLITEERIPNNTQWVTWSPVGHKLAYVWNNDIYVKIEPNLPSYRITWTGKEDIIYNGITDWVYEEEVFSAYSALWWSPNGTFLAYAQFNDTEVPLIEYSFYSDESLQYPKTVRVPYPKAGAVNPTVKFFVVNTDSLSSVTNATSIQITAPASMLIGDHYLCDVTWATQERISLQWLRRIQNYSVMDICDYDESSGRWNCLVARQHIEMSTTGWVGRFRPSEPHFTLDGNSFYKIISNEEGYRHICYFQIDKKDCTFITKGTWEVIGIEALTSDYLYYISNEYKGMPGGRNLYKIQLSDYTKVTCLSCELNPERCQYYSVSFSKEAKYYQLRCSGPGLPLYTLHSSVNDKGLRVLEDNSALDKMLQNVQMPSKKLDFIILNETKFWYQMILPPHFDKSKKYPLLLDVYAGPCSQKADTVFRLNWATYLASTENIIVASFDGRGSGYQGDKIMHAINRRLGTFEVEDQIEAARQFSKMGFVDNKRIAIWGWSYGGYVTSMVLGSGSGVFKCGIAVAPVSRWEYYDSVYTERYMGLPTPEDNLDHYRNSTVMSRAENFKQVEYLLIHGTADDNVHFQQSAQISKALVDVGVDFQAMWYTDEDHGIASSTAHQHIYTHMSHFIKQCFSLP

`CSCC[C@H](NC(=O)[C@H](C)NC(=O)[C@@H](N)C(C)C)C(=O)N1CCC[C@H]1C(=O)O` [VAMP] (H-VAMP-OH) gave an inhibition at 100 µg/mL (replicate 1) of 72.5%, an inhibition at 100 µg/mL (replicate 2) of 69.3% and an inhibition at 100 µg/mL (replicate 3) of 50.4%. It also gave an inhibition at 200 µg/mL (replicate 1) of 82.5%, an inhibition at 200 µg/mL (replicate 2) of 80.3% and an inhibition at 200 µg/mL (replicate 3) of 84.2%. For the same compound, the inhibition at 500 µg/mL (replicate 1) was 92.1%, the inhibition at 500 µg/mL (replicate 2) was 89.1% and the inhibition at 500 µg/mL (replicate 3) was 84.8%.
